Among the data in PubChem BioAssay (NCI) are TGI and GI50 values, retold here.

Each structure is given as a SMILES string. “And” between values parts separate entries of the source, which are not always exact repeats. Equal values may be shown once.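 Assay format: 96-well plates, 48-hour exposure. Here, GI50 denotes the concentration required for 50% inhibition of growth. TGI marks complete inhibition of growth.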 Where only a bound is given, the exact number is not on record here.

Some test systems named below: 786-0 renal; CAKI-1 renal; COLO 205 colon; EKVX NSCLC; LOX IMVI melanoma; RPMI-8226 leukemia; SF-268 CNS; SF-295 CNS; SR leukemia; U251 CNS.
Experiment in all cases: NCI anticancer screen, dose series, 48 h

`OCCCN=C1CCCCC1`: the TGI with 786-0 renal, in the experiment on CAKI-1 renal, in the experiment with COLO 205 colon, with EKVX NSCLC, with LOX IMVI melanoma and in the experiment on RPMI-8226 leukemia was above 100 µM each time. The TGI in the experiment with SF-268 CNS, with SF-295 CNS, in the experiment with SR leukemia and in the experiment on U251 CNS was above 100 µM in each case.
Turning to `COc1ccc2nc3ccccc3c(NCCNCCO)c2c1`, the GI50 is 0.649 µM in the experiment with 786-0 renal; 1.22 µM with CAKI-1 renal; 0.397 µM with COLO 205 colon; 1.43 µM in the experiment on EKVX NSCLC; 0.404 µM in the experiment with LOX IMVI melanoma; 0.406 µM in the experiment with RPMI-8226 leukemia. Besides, the GI50 is 0.46 µM in the experiment with SF-268 CNS, 0.484 µM with SF-295 CNS, 0.214 µM in the experiment with SR leukemia and 0.479 µM in the experiment on U251 CNS. In addition, the TGI in the experiment with 786-0 renal is 7.55 µM; in the experiment with CAKI-1 renal, 6.5 µM; in the experiment with COLO 205 colon, 1.77 µM; in the experiment with EKVX NSCLC, 7.32 µM; in the experiment with LOX IMVI melanoma, 3.75 µM; with RPMI-8226 leukemia, 2.73 µM. The TGI in the experiment with SF-268 CNS came out at 2.95 µM; with SF-295 CNS, 2.62 µM; with SR leukemia, 1.33 µM; with U251 CNS, 4.35 µM.
As to `S=c1ssnc1-c1cc2ccccc2o1`, the GI50 was 16.5 µM with 786-0 renal; 10 µM in the experiment with CAKI-1 renal; 14.8 µM in the experiment with COLO 205 colon; 11.8 µM with EKVX NSCLC; 4.12 µM in the experiment on LOX IMVI melanoma; 2.36 µM in the experiment with RPMI-8226 leukemia. The GI50 is 13.9 µM in the experiment with SF-268 CNS, 14.3 µM in the experiment with SF-295 CNS, 3.04 µM in the experiment with SR leukemia and 15.1 µM in the experiment on U251 CNS. For the same compound, the TGI in the experiment on 786-0 renal is 34.8 µM; in the experiment with CAKI-1 renal, 26.1 µM; with COLO 205 colon, 39.5 µM; with EKVX NSCLC, 30.8 µM; in the experiment with LOX IMVI melanoma, 15.7 µM; in the experiment with RPMI-8226 leukemia, 25.7 µM. In addition, the TGI in the experiment with SF-268 CNS is 35 µM; in the experiment on SF-295 CNS it was 33.8 µM; in the experiment with SR leukemia it was 18.3 µM; with U251 CNS it was 28.4 µM.
For the compound `O=C1CCC(c2ccccc2)=NN1c1nc2ccccc2s1`, the TGI is above 100 µM with 786-0 renal; above 100 µM with CAKI-1 renal; 18.1 µM in the experiment on COLO 205 colon; above 100 µM with EKVX NSCLC; above 100 µM in the experiment on LOX IMVI melanoma; above 87.9 µM in the experiment with RPMI-8226 leukemia. Besides, the TGI in the experiment on SF-268 CNS was above 83 µM; in the experiment on SF-295 CNS it was above 85.2 µM; in the experiment with SR leukemia it was above 84.6 µM; with U251 CNS, above 100 µM.
Regarding `CCSC[C@@H]1C[C@](O)(c2ccccc2)[C@@H](c2ccccc2)O1`, the GI50 with 786-0 renal is above 100 µM; in the experiment on CAKI-1 renal, above 83.8 µM; in the experiment with COLO 205 colon, above 78.9 µM; in the experiment with EKVX NSCLC, 59.2 µM; in the experiment on LOX IMVI melanoma, above 94.2 µM; in the experiment with RPMI-8226 leukemia it was 28.7 µM. Moreover, the GI50 in the experiment with SF-268 CNS is above 78.6 µM; with SF-295 CNS, 46.2 µM; with SR leukemia, below 0.136 µM; in the experiment on U251 CNS, 99.1 µM. Besides, the TGI in the experiment on 786-0 renal, in the experiment on CAKI-1 renal, with COLO 205 colon, in the experiment with EKVX NSCLC, in the experiment with LOX IMVI melanoma and with RPMI-8226 leukemia was above 100 µM each time. The TGI with SF-268 CNS was above 100 µM; in the experiment on SF-295 CNS, above 100 µM; with SR leukemia, 9.3 µM; in the experiment on U251 CNS it was above 100 µM.
For the compound `O=c1c(I)c[nH]cc1I`, the GI50 in the experiment on 786-0 renal, in the experiment with CAKI-1 renal, in the experiment on COLO 205 colon, in the experiment on EKVX NSCLC, in the experiment on LOX IMVI melanoma and in the experiment on RPMI-8226 leukemia was above 100 µM in each case. Also, the GI50 in the experiment with SF-268 CNS, in the experiment with SF-295 CNS, in the experiment on SR leukemia and in the experiment with U251 CNS was above 100 µM throughout. Further, the TGI in the experiment with 786-0 renal, with CAKI-1 renal, in the experiment on COLO 205 colon, in the experiment with EKVX NSCLC, in the experiment on LOX IMVI melanoma and with RPMI-8226 leukemia was above 100 µM each time. For the same compound, the TGI with SF-268 CNS, in the experiment with SF-295 CNS, in the experiment on SR leukemia and in the experiment with U251 CNS was above 100 µM each time.
`CN(C)CCCN1c2ccccc2Sc2ccc(C(F)(F)F)cc21`: the GI50 is 1.63 µM with 786-0 renal; 1.54 µM in the experiment with CAKI-1 renal; 1.38 µM in the experiment on COLO 205 colon; 1.84 µM with EKVX NSCLC; 1.57 µM in the experiment with LOX IMVI melanoma; 2.03 µM in the experiment with RPMI-8226 leukemia. Further, the GI50 with SF-268 CNS is 1.75 µM; in the experiment with SF-295 CNS, 1.65 µM; in the experiment on SR leukemia, 2.14 µM; with U251 CNS it was 1.69 µM. For the same compound, the TGI in the experiment on 786-0 renal was 3.09 µM and 27.1 µM and 27.9 µM; in the experiment on CAKI-1 renal it was 3.15 µM and 24 µM; in the experiment on EKVX NSCLC, 4.75 µM and 35.7 µM and 29.3 µM; in the experiment on LOX IMVI melanoma, 2.98 µM and 28.9 µM and 29.7 µM; with RPMI-8226 leukemia it was 6.06 µM and 35.7 µM and 45.4 µM; in the experiment with SF-268 CNS, 3.94 µM and 31.8 µM and 29.2 µM. Also, the TGI with SF-295 CNS was 3.23 µM and 30.4 µM and 29.1 µM; in the experiment on U251 CNS, 3.14 µM and 29.6 µM and 29.4 µM.
For the compound `CCN(CC)c1ccc(/C=N/NC(=O)Cc2ccc(Nc3ccnc(C(F)(F)F)c3)cc2)c(O)c1`, the GI50 in the experiment with 786-0 renal is 0.626 µM; with CAKI-1 renal, 0.413 µM; with COLO 205 colon, 1.24 µM; in the experiment with EKVX NSCLC, 0.98 µM; in the experiment with LOX IMVI melanoma, 0.413 µM; with RPMI-8226 leukemia, 0.521 µM. Further, the GI50 in the experiment on SF-268 CNS is 0.455 µM; in the experiment with SF-295 CNS, 0.713 µM; with SR leukemia it was 0.285 µM; in the experiment on U251 CNS it was 0.586 µM. Moreover, the TGI in the experiment on 786-0 renal is above 100 µM; in the experiment with CAKI-1 renal it was above 25 µM; with COLO 205 colon it was above 100 µM; in the experiment with EKVX NSCLC, above 77 µM; in the experiment with LOX IMVI melanoma, 3.8 µM; in the experiment on RPMI-8226 leukemia it was 54.2 µM. Also, the TGI was above 100 µM in the experiment with SF-268 CNS, above 60 µM in the experiment on SF-295 CNS, above 19.9 µM with SR leukemia and above 100 µM with U251 CNS.
